Patent US20040127518A1, “Modulation of anxiety through blockade of anandamide hydrolysis” (priority 2002, published 2004)

Columns and labels:
[1] = Body temperature (rectal probe); assay type: in vivo; settings: UCM532 10 mg kg-1 i.p.; UCM597 0.3 mg kg-1 i.p.
Description: We dissolved all compounds in saline/Tween 80/polyethylenglycol (90/5/5) and administered them by i.p. injection immediately before tests. We measured body temperature with a rectal probe (Type T, Copper-Costantan Thermocouple-Physitemp Instruments INC, Clifton, N.J.) connected to a digital thermometer (model BAT-12 Physitemp Instruments INC, Clifton, N.J.); and catalepsy using the procedure described in Tseng and Craft (Tseng, A. H. et al., Eur. J. Pharmacol., 430, 41-47 (2001)).

Mouse hot-plate test = assay type: in vivo; settings: dose not stated, data not shown
Procedure: We dissolved FAAH inhibitors in polyethyleneglycol/water (1/1) and rimonabant in saline. Formalin and hot-plate assays were carried out in the mouse, as described (Beltramo, M. et al., FEBS Lett., 403, 263-267 (1997)).
The compounds exerted, however, moderate antinociceptive effects in two models of acute pain.

Compound: CCCCNC(=O)Oc1ccc(OCc2ccccc2)cc1 [UCM532, n-Butylcarbamic acid 4-benzyloxyphenyl ester]
- body temperature / hypothermia, compound alone [1]: no
- antinociceptive effect, hot-plate test, compared with UCM597 (Mouse hot-plate test): mimicked, albeit less effectively
